Usually Ki stands for the dissociation constant of the complex between target and ligand, obtained from inhibition or displacement.

These results are taken from US10874669B2 (WAYNE STATE UNIVERSITY, priority 2018, dated 2020).

Entries after “also recorded” stand apart in the source; their conditions may differ. Where only a bound is given, the exact number is not on record here.

Data set [1] deals with PC12 cells. Briefly: DCFDA fluorescence assay of intracellular ROS induced by 6-OHDA. Conditions: 20 μM, 24 h pretreatment, then 75 μM 6-OHDA 1 h. It is filed as cell-based, rat. The method, then: Experimental detection of reactive oxygen species (ROS) produced by 6-OHDA was carried out by DCFDA assay. 6-OHDA, a well known neurotoxin, produces oxidative stress similar to what is observed in PD and the mechanism of neurotoxicity of 6-OHDA takes place via its auto-oxidation and subsequent generation of hydrogen peroxide. DCFDA is a non-fluorogenic dye but in the presence of ROS, it is oxidized to produce DCF which produces florescence. We have previously shown that 6-OHDA causes cell death in a dose-dependent manner. We chose 75 μM 6-OHDA as we have shown that this dose induces 40-50% cell death. […] However, the test compounds could dose dependently decrease the production of ROS induced by 6-OHDA (75 μM) in PC12 cells. In this regard, highest dose of all the three compounds was the most efficacious in producing significant antioxidant effect.
PC12 cells (ATCC CRL1721.1, Manassas, Va., USA), a rat adrenal pheochromocytoma cell line, were cultured in T-75 flasks (Greiner Bio One, Frickenhausen, Germany) and maintained in RPMI 1640 medium supplemented with 10% heat inactivated horse serum, 5% fetal bovine sérum, 100 U/ml penicillin, and 100 μg/mL streptomycin at 37° C. in 95% air/5% CO2. […]
PC12 cells were plated at 30,000 cells/well density in 100 μL media in 96-well black plates and incubated at 37° C. under 5% CO2 atmosphere for 24 h. […] After incubation for 1 h, the fluorescence was measured using spectrophotometer fluorescence generated microplate reader (Biotek Epoch, Winooski, Vt., USA) at excitation 497 nm and emission at 527 nm. […] The specific fluorescence emission was calculated after subtraction of the DCFDA untreated control cells from the DCFDA treated cells for both the background and 1 h treatment conditions. This was followed by the division of the 1 h treatment data by the background activity which was determined from vials before treatment with 6-OHDA, to derive the final data point.

The test system of data set [2] is reserpine-induced hypolocomotion in rats. Briefly: Reversal of reserpine-induced hypolocomotion in rats. Particulars: 10 μMol/kg, ip; for duration of locomotor activation: locomotion monitored for 6 h; for reversal of reserpine-induced akinesia / hypolocomotion (horizontal activity): reserpine 5 mg/kg sc, 18 h pretreatment, rats.
Protocol: In this model depletion of catecholamines by reserpine results in catalepsy in rats.
The following commercially available drug was used in the experiment: reserpine hydrochloride (Alfa Aesar). […] The compounds for this study were administered in a volume of 0.1-0.2 mL for subcutaneous administration and 0.5-0.7 ml for interaperitoneal administration into each rat.
In rodent studies, animals were male and female Sprague-Dawley rats from Harlan (Indianapolis, Ind.) weighing 220-225 g unless otherwise specified. Animals were maintained in sawdust-lined cages in a temperature and humidity controlled environment at 22±1° C. and 60±5% humidity, respectively. A 12 h light/dark cycle was maintained, with lights on from 6:00 a.m. to 6:00 p.m. They were group-housed with unrestricted access to food and water. All experiments were performed during the light component.
Reserpine (5.0 mg/kg, sc) was administered 18 h before the injection of drug or vehicle. The rats were placed individually in the chambers for 1 h for acclimatization before administration of the test drugs or vehicle. Immediately after administration of drug or vehicle, animals were individually placed in Opto-Varimex 4 animal activity monitor chamber (Columbus Instruments, Ohio, USA) to start measuring locomotor activity. Locomotion was monitored for 6 h. […] The data were presented as horizontal activity (HACTV). […] The data were analyzed by one-way analysis of variance (ANOVA) followed by Dunnett's post hoc test.
The target of a further data set is cloned rat D2L receptors (Rattus norvegicus (Rat), UniProt P61169). Briefly: [3H]spiroperidol competition binding, rat D2L receptors in HEK-293 cells. Particulars: values of Table 3; for Ki: rat D2 in HEK-293 cells; for D2/D3: ratio of Ki values. The source says:
All these procedures were described by us previously.

The subject of data set [3] is PC12 cells. Description: MTT cell viability, compounds alone. The data set is classed as cell-based, rat. The procedure: To investigate the neuroprotection property of the selected target molecules (−)-91b, (−)-95a and (−)-95c against 6-OHDA-induced cytotoxicity, we used dopaminergic rat adrenal Pheochromocytoma PC12 cells. As reported above, treatment of PC12 cells with 6-OHDA at 75 μM for 24 h produced ˜50% loss in cells viability and this concentration was used in subsequent experiments. […] However, (−)-95a produced some incremental toxicity starting at 20 μM dose (FIG. 4B). The potential neuroprotective effects of (−)-91b, (−)-95a and (−)-95c against 6-OHDA-induced toxicity were evaluated next. […] At those concentration both drugs increased cell survival by ˜20% compared to 6-OHDA (75 μM) treated alone (FIGS. 4D and 4F), indicating neuroprotective effect of these drugs. […] This could be due to the fact that the compound by itself produced toxicity to the cells at doses ≥20 μM and the presence of 6-OHDA enhanced the toxicity (FIG. 4B).
PC12 cells (ATCC CRL1721.1, Manassas, Va., USA), a rat adrenal pheochromocytoma cell line, were cultured in T-75 flasks (Greiner Bio One, Frickenhausen, Germany) and maintained in RPMI 1640 medium supplemented with 10% heat inactivated horse serum, 5% fetal bovine serum, 100 U/ml penicillin, and 100 μg/mL streptomycin at 37° C. in 95% air/5% CO2. Stock solutions of (−)-91b, (−)-95a, (−)-95c, and 6-hydroxydopamine (6-OHDA) were prepared in dimethylsulfoxide (DMSO) and aliquots were stored at −20° C. and −80° C., respectively. […]
PC12 cells were plated at 17000 cells/well density in 100 μL of media in 96-well plates and incubated at 37° C. under 5% CO2 atmosphere for 24 h. […] The absorbance was measured on a microplate reader (Biotek Epoch, Winooski, Vt., USA) at 570 nm with background correction performed at 690 nm. Data from at least three experiments were analyzed using GraphPad software (version 6, San Diego, Calif., USA). Cell viability was defined as […] compared to untreated controls.

Chain of cloned rat D2L receptors (P61169 whole entry): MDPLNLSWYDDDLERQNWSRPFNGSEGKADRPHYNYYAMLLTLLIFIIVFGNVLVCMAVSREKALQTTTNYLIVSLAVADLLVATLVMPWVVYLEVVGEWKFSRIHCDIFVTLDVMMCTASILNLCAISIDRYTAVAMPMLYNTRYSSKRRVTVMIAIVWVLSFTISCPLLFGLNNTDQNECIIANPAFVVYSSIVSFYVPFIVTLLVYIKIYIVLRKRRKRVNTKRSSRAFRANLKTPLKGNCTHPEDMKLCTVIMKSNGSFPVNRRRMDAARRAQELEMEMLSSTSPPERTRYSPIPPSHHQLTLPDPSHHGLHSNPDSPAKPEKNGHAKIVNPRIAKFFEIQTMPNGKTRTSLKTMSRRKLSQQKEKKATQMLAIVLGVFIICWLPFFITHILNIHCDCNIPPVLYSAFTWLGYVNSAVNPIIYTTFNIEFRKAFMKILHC

In the case of `CCCN(CCN1CCN(c2ccc3[nH]c4ccccc4c3c2)CC1)[C@H]1CCc2nc(N)sc2C1` [(−)-91b, (S)—N^6-(2-(4-(9H-carbazol-3-yl)piperazin-1-yl)ethyl)-N^6-propyl-4,5,6,7-tetrahydrobenzo[d]thiazole-2,6-diamine], in the data set with PC12 cells [1], the “reduction in ROS” value came out at 76%. In data set [2], the “duration of locomotor activation” value is given as “significant enhancement of locomotion for the duration of the study of 6 h” and the “reversal of reserpine-induced akinesia / hypolocomotion (horizontal activity)” value was “significantly reversed akinesia; also recorded: significantly different”. Besides, on cloned rat D2L receptors, the affinity corresponds to a Ki of 135 nM and the D2/D3 came to 35. In addition, the “cell viability, compound alone” value with PC12 cells [3] (0.01-30 μM, compared to untreated controls) is listed as “no cells loss”.
With `CCCN(CCN1CCN(c2ccc3c(c2)[nH]c2ccccc23)CC1)[C@H]1CCc2c(O)cccc2C1` [Compound (−)-95a, (S)-6-((2-(4-(9H-carbazol-2-yl)piperazin-1-yl)ethyl)(propyl)amino)-5,6,7,8-tetrahydronaphthalen-1-ol], the “reduction in ROS” value in the data set with PC12 cells [1] turned out to be 93%. For the same compound, in data set [2], the “duration of locomotor activation” value is listed as “significant enhancement of locomotion for the duration of the study of 6 h” and the “reversal of reserpine-induced akinesia / hypolocomotion (horizontal activity)” value is “significantly reversed akinesia; also recorded: highest in vivo activity; also recorded: significantly different”. At cloned rat D2L receptors, the Ki was found to be 71.2 nM and the D2/D3 is given as 177. Besides, in the data set on PC12 cells [3] (compound alone), the “dose at which compound alone produced toxicity” value is ≥ 20 µM.
